Experimental data: patent publication US6613875B1, “Cyclic peptide tube” (The Scripps Research Institute, priority 1993, dated 2003)
Square brackets hold non-standard residues; d marks the D form.

What was measured:
[1] = Incorporation of peptide subunit into lipid bilayers of large unilamellar vesicles (absorption and fluorescence spectroscopy); assay type: physicochemical; details: aqueous liposomal suspensions
Excerpt: Incorporation of the peptide subunit into lipid bilayers using large unilamellar vesicles has been established by absorption and fluorescence spectroscopy. Formation of the hydrogen-bonded transmembrane channel structure in phosphatidylcholin liposomes has been supported by FT-IR spectroscopy (FIG. 24). The observed amide-I band at 1624 cm^−1 is not only similar to the carbonyl stretching frequencies found in other nanotube structures disclosed herein, but is also consistent with the infrared spectrum of gramicidin A in similar lipid bilayers. (E. Nabedryk et al in Biophys. J. (1982), vol. 38, pages 243-249. Furthermore, the observed N-H stretching frequency at 3272 cm^−1 strongly supports the formation of a tight network of hydrogen bonds with an average intersubunit distance of 4.7 Å.
The second control peptide cyclo[-(^MeN-D-Ala-Phe)4-] which has the desirable hydrophobic surface characteristics but lacks the propensity for participating in extended hydrogen bonding network, was also designed and tested for ion transport activity. The peptide design incorporates a novel N-methylation strategy on one face of the ring structure which predisposes the subunit toward a dimeric cylindrical structure (Ghadiri, M. R., Kobayashi, K., Granja, J. R., Chadha, R., and McRee, D. E. manuscript in preparation). Such a dimeric cylindrical ensemble is approximately 10 Å thick and can not span the lipid bilayer.
The ten-residue peptide subunit employed in the present study, cyclo[-Gln-(D-Leu-Trp)4-D-Leu-], is made up of largely tryptophan and leucine residues to favor its partitioning into and self-assembly in lipid bilayers. It was synthesized on solid support^5 and characterized by ^1H NMR spectroscopy and mass spectrometry. […] This has been supported by absorption and fluorescence spectrophotometry and gel permeation studies. Formation of a hydrogen bonded transmembrane channel structure in phosphatidylcholin liposomes has been established by FT-IR spectroscopy^6. […]

[2] = Channel-mediated glucose efflux from glucose entrapped unilamellar vesicles, enzyme coupled NADPH assay; assay type: biochemical; details: for apparent rate constant of glucose transport: 27° C.
Excerpt: FIG. 28 illustrates a schematic illustration of channel-mediated glucose transport and the enzyme coupled assay used to monitor the transport activity with respect to the channel structure indicated in FIGS. 27A-B. Formation of a transmembrane pore structure(s) initiates glucose efflux from the liposome which can be directly monitored by measuring the rate of NADPH production. The enzymes and cofactors employed are hydrophilic and thus can not pass through the lipid membrane and are too large to penetrate the channel structure. Therefore, only the released glucose can undergo the enzymatic reaction.
FIG. 29 illustrates the ensuing glucose efflux on the addition of various amounts of the channel forming peptide of FIGS. 27A-B, viz., open circles represent 15.0×10^−6 M; closed circles represent 11.0×10^−6 M; open triangles represent 7.5×10^−6 M; closed triangles represent 5.6×10^−6 M; and open diamonds represent 3.8×10^−6 M. Efflux is expressed in terms of the amount of glucose released as a function of time (sampled at 90 sec intervals). The large unilamellar vesicles used in this study contained 200 mM D-glucose. All curves are background corrected to remove any contribution from the nonspecific glucose leakage from the liposomes.
Glucose transport activity was studied in isotonic solutions using glucose entrapped unilamellar lipid vesicles. Unilamellar vesicles, ˜150 nm in diameter, were prepared by the reverse-phase evaporation method using 1,2-dipalmitoyl-Sn-glycero-3-phosphatidylcholine (DPPC) 1-palmitoyl-2-oleoyl-Sn-glycero-3-phosphatidylcholine (POPC) 1-palmitoyl-2-oleoyl-Sn-glycero-3-phosphatidylserine (POPS), and cholesterol in the ratio 1:1:0.1:1 in a solution containing 50, 100, 150, or 200 mM D-glucose, 100 mM NaCl, and 50 mM Tris buffer pH 7.5, according to the method of F. Szoka et al. in Proc. Natl. Acad. Sci. USA (1978), vol. 75, pages 4194-4198. Liposomes were gel-filtered using Sephadex G-25 in an isotonic buffer containing 50, 100, 150, or 200 mM sucrose, 100 mM NaCl, and 50 mM Tris buffer pH 7.5. The liposome preparation was stored at 4° C. and used within 24 hours of the synthesis. The transport phenomenon was monitored spectrophotometrically at 340 nm for the production of NADPH using an enzyme coupled assay (FIG. 28), according to the method of S. C. Kinsky in Methods in Enzymology; Fleischer, S., Packer, L., Eds; Academic Press: London, 1974; vol. 32, pp 501-513. All experiments were performed on a Spectronic-3000 photodiode-array spectrophotometer using 3 ml quartz cuvettes placed in the thermojacketed multiple cell holder and held at 27° C. In a typical experiment the following solutions were sequentially placed in the cuvettes: 750 ml of buffer (300 mM NaCl, 50 mM Tris pH 7.5, 3.5 mM MgCl2, and 0.15 mM CaCl2), 500 ml of the enzyme solution (8 units.ml^−1 of hexokinase, 16 units.ml^−1 of glucose-6-phosphate dehydrogenase, 2.5 mM ATP, 1.3 mM NADP all dissolved in 200 mM NaCl, 50 mM Tris pH 7.5, 3.5 mM MgCl2, and 0.15 mM CaCl2), and 75 ml of the stock liposome solution^8 (2.6×10^−3 M in phospholipids). Total glucose content in each cuvette was determined by Triton X-100 treatment. Transport was initiated by the addition of an appropriate amount (5, 7.5, 10, 15, or 20 ml) of the peptide solution (1 mM in DMF) to the reference and the sample cuvettes (hexokinase was omitted from the reference sample). […] The production of NADPH was monitored at 340 nm for 1.5 h at 90 second time intervals. […]

Substance	partitioning / incorporation into lipid bilayers [1]	display any glucose transport activity under similar assay conditions ([2]; sentence reads 'neither ... nor ... display any glucose transport activity' = none)	apparent rate constant of glucose transport ([2]; liposomes with initial glucose concentration 50 mM)	apparent rate constant of glucose transport ([2]; liposomes with initial glucose concentration 100 mM)	apparent rate constant of glucose transport ([2]; liposomes with initial glucose concentration 150 mM)	apparent rate constant of glucose transport ([2]; liposomes with initial glucose concentration 200 mM)
cyclo[-(Trp-D-Leu)3-Gln-D-Leu-] (cyclo(W[dL]W[dL]W[dL]Q[dL]); SMILES CC(C)C[C@H]1NC(=O)[C@H](CCC(N)=O)NC(=O)[C@@H](CC(C)C)NC(=O)[C@H](Cc2c[nH]c3ccccc23)NC(=O)[C@@H](CC(C)C)NC(=O)[C@H](Cc2c[nH]c3ccccc23)NC(=O)[C@@H](CC(C)C)NC(=O)[C@H](Cc2c[nH]c3ccccc23)NC1=O) [eight residue ion channel forming cyclic peptide, approximately 7.5 Å pore]	rapid partitioning	nor				
cyclo[-Gln-(D-Leu-Trp)4-D-Leu-] (cyclo(Q[dL]W[dL]W[dL]W[dL]W[dL]); SMILES CC(C)C[C@H]1NC(=O)[C@H](CCC(N)=O)NC(=O)[C@@H](CC(C)C)NC(=O)[C@H](Cc2c[nH]c3ccccc23)NC(=O)[C@@H](CC(C)C)NC(=O)[C@H](Cc2c[nH]c3ccccc23)NC(=O)[C@@H](CC(C)C)NC(=O)[C@H](Cc2c[nH]c3ccccc23)NC(=O)[C@@H](CC(C)C)NC(=O)[C@H](Cc2c[nH]c3ccccc23)NC1=O) [10-residue cyclic peptide forming 10 Å pores that transport glucose]	rapid incorporation		0.18±0.02 mol(glucose)/mol(peptide)/min^−1	0.48±0.05 mol(glucose)/mol(peptide)/min^−1	0.74±0.1 mol(glucose)/mol(peptide)/min^−1	1.2±0.09 mol(glucose)/mol(peptide)/min^−1
